Reference: ChEMBL document CHEMBL1201862, “PubChem BioAssay data set” (2004)
One block for each molecule: values may come before it. Active and inactive are the calls of the source.

What was measured:
[1] = biological target: G-protein coupled receptor 183 (Homo sapiens, UniProt P32249); assay: SAR confirmation of small molecule antagonists of the EBI2 receptor via a luminescent beta-arrestin assa.; type: functional
[2] = CellTiter-Glo luminescence survival assay, SW480 colon tumor line, concentration-response curve, half-maximal inhibitory concentration (AID 1117338); type: functional
[3] = HCT116 cell viability decrease, GSK3B pretreatment – CellTiter-Glo, IC50, dose response (AID 1117339); type: functional; settings: HCT-116
[4] = Reduced DLD-1 viability, concentration-response, CellTiter-Glo luminescence (AID 1117352); type: functional
[5] = cytotoxicity toward Colo320 cells – cell-based, CellTiter-Glo luminescence, IC50, dose response (AID 1117334); type: functional; settings: COLO 320
[6] = RKO cell viability reduction, dose response, CellTiter-Glo luminescence (AID 1117322); type: functional
[7] = cytotoxicity toward HT-29 cells – cell-based, CellTiter-Glo luminescence, IC50, dose response (AID 1117330); type: functional
[8] = SNU-C1 cell viability reduction, dose response, CellTiter-Glo luminescence (AID 1117323); type: functional, cell-based
[9] = cytotoxicity toward HCT116 cells – cell-based, CellTiter-Glo luminescence, IC50, dose response (AID 1117332); type: functional; settings: HCT-116
[10] = Dd2 parasite growth inhibition in erythrocytes – SYBR Green, dry powder samples, set 9, dose response (AID 1159568); type: functional, cell-based
[11] = growth inhibition of PfATP4-mutant resistant parasites – NITD609-resistant line, SYBR Green, dry powder, dose response (AID 1159571); type: functional, cell-based;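 note: parasites synchronized at ring stage by sorbitol before testing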
[12] = growth inhibition of yeast DHODH-expressing 3D7 parasites – SYBR Green, dry powder samples, dose response (AID 1159570); type: functional, cell-based;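 note: parasite growth measured after 72 hours of compound exposure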
[13] = toxicity to human HepG2 hepatoma cells – cell-based, plate reader, dry powder samples, cytotoxicity control, dose response (AID 1159569); type: functional;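 note: inhibitor potency with signal falling toward the positive control level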
[14] = Dd2 malaria parasite growth inhibition potency – SYBR Green, dry powder samples, dose response (AID 1159566); type: functional, cell-based;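 note: potency for growth inhibition with lower SYBR green DNA signal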
[15] = reduced cellular PGC1a acetyl-lysine signal – cell-based, cherry-picked samples, dose response (AID 720514); type: functional;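 note: potency may reflect raised or lowered acetylation signal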
[16] = viability loss in THP-1 monocytes – THP-1 cells, cytotoxicity control for Vif-APOBEC3G degradation inhibitor project, dose response (AID 1117359); type: functional; settings: THP-1
[17] = mitochondrial function rescue without frataxin homolog – Friedreich's ataxia, plus single-dose screen, dose response (AID 1465); type: functional;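 note: yeast depleted of Yfh1p frataxin homolog grown on glycerol needing respiration; WST-1 tetrazolium dye reduction as measure of cellular dehydrogenase metabolic activity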
Troponin, cardiac muscle = Troponin, cardiac muscle (Homo sapiens, UniProt P19429+P45379+P63316); assay: Fluorescence-based biochemical high throughput dose response assay for activators of the calcium sensitivity of cardiac Regulated Thin Filaments (RTF). [Related pubchem assays (depositor defined):AID493008, AID493018, AID504382, AID504383]; type: protein-complex assay
[18] = IC50 of Artemis nuclease activity blockers – biochemical, fluorescence intensity, dose response (AID 720701); type: functional;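 note: Artemis endonuclease enzyme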

Chain of G-protein coupled receptor 183 (P32249 whole entry): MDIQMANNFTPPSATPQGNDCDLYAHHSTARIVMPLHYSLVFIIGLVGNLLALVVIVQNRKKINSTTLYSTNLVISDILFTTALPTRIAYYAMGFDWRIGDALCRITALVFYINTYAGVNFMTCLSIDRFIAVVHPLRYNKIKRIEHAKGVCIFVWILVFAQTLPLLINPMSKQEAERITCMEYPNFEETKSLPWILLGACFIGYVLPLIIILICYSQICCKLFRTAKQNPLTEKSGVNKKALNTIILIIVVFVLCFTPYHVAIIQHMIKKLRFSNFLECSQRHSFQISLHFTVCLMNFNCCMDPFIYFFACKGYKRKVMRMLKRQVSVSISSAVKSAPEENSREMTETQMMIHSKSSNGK

IC50 [1]: 0.00062 µM (active)
SMILES: O=C(/C=C/c1ccc(Br)cc1)N1CCN(C(=O)c2ccccc2)CC1

SMILES: CSc1ccc(/C=C2/C(C)=C(CC(=O)O)c3cc(F)ccc32)cc1 [SULINDAC SULFIDE]
IC50 [2]: 20 µM (inactive) | IC50 [3]: > 20 µM (inactive) | IC50 [4]: > 20 µM (inactive) | IC50 [5]: > 20 µM (inactive) | IC50 [6]: > 20 µM (inactive) | IC50 [7]: > 20 µM (inactive) | IC50 [8]: 12 µM (inactive) | IC50 [9]: > 20 µM (inactive)

SMILES: COc1cccc(CN2[C@H](CO)[C@@H](c3ccccc3)C23CN(Cc2ccccc2OC)C3)c1
AC50 [10]: 1.31 µM (active) | AC50 [11]: 0.875 µM (active) | AC50 [12]: 0.999 µM (active) | AC50 [13]: 23.9 µM (active) | AC50 [14]: 0.47 µM (active)

SMILES: N#C[C@H]1[C@H](c2ccc(C#CC3CCCC3)cc2)[C@H](CO)N1C(=O)Cc1ccccn1
AC50 [15]: 20.4 µM (active)

SMILES: COc1ccc(-c2[nH]c3ccccc3c2SCCN)cc1
CC50 [16]: 28.3 µM (active)

EC50 (Troponin, cardiac muscle): 7.62 µM (active)
SMILES: CCCN1C=CC(=CC=C(C#N)C#N)C=C1
EC50 [17]: > 100 µM (active)

SMILES: COc1ccc(S(=O)(=O)N(C)C[C@H]2Oc3ccc(NC(=O)Cc4cn(C)c5ccccc45)cc3C(=O)N([C@H](C)CO)C[C@@H]2C)cc1
AC50 [10]: 0.39 µM (active)

IC50 [18]: 11.8 µM (active)
SMILES: COc1ccc(C2CC(c3ccc(Cl)cc3)Nc3nc(NC(=O)c4ccco4)nn32)cc1 (stereo not given)
